Measured values from patent US10750742B2, “Pesticidally active pyrazole derivatives” (SYNGENTA PARTICIPATIONS AG, priority 2015, dated 2020).
Where two headings read alike, the source gives them in different places. Values belong to the compound of their own block, whether it stands above or below them.

Key:
[1] = system: Spodoptera littoralis; assay: Comparison: insecticidal activity against Spodoptera littoralis, larvicide L-3, feeding/contact, soybean plants; assay type: in vivo; conditions: 120 h
Procedure: (§1) Biological Comparison Data:
(§2) Compound A and B are disclosed in WO2014/122083 as example (Ic-1) (p. 76) and (lc-2) (p. 82, Table 3). The activities of compounds A and B to treat different pests are compared with the activities of compound 4, 6, 15 and 35 according to the present invention. The tests are carried out at different concentrations (ppm).
a) Insecticidal Activity Against Spodoptera littoralis (Egyptian Cotton Leaf Worm, Larvicide L-3, Feeding/Contact)
Soybean plants were sprayed with diluted test solutions in an application chamber. The plants (2 replicates) were infested with 10 L3 larvae 1 day after treatment. Samples were checked 5 days after infestation for mortality, feeding behavior, and growth regulation.

[2] = system: Thrips tabaci; assay: Comparison: insecticidal activity against Thrips tabaci, sunflower leaf discs; assay type: in vivo; conditions: 6 days after infestation
Procedure: as §1, §2
b) Insecticidal Activity Against Thrips tabaci (Onion Thrips):
(§3) Sunflower leaf discs were placed on agar in 24-well microtiter plates and sprayed with aqueous test solutions prepared from 10′000 ppm DMSO stock solutions. After drying the leaf discs were infested with a thrips population of mixed ages. The samples were assessed for mortality 6 days after infestation.

[3] = system: Spodoptera littoralis; assay: Spodoptera littoralis (Egyptian cotton leaf worm), cotton leaf disc spray test; assay type: in vivo; conditions: foliar, 72 h, application rate 200 ppm, L1 larvae, 3 days after infestation, read-out: control (at least one of mortality, anti-feedant effect, growth inhibition)
Summary of the method: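 Cotton leaf discs on agar were sprayed with aqueous dilutions of 10′000 ppm DMSO stocks, dried and infested with five L1 larvae. Mortality, anti-feedant effect and growth inhibition were scored against untreated samples 3 days after infestation. Control = any of these higher than untreated.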

[4] = system: Plutella xylostella; assay: Plutella xylostella (diamond back moth), artificial diet test; assay type: in vivo; conditions: 120 h, application rate 200 ppm, L2 larvae, 5 days after infestation, read-out: control (mortality and growth inhibition)
Procedure: Plutella xylostella (Diamond Back Moth):
(§4) 24-well microtiter plates with artificial diet were treated with aqueous test solutions prepared from 10′000 ppm DMSO stock solutions by pipetting. After drying, the plates were infested with L2 larvae (10 to 15 per well). The samples were assessed for mortality and growth inhibition in comparison to untreated samples 5 days after infestation.

[5] = system: Diabrotica balteata; assay: Diabrotica balteata (corn root worm), maize sprout test; assay type: in vivo; conditions: 96 h, application rate 200 ppm, L2 larvae, 4 days after infestation, read-out: control (mortality and growth inhibition)
Procedure: Diabrotica balteata, (Corn Root Worm)
as §4, with “Maize sprouts, placed on an agar layer in 24-well” for “24-well”, “plates” for “plates with artificial diet”, “spraying.” for “pipetting.”, “(6” for “(10”, “10” for “15”, “4” for “5”

[6] = system: Thrips tabaci; assay: Thrips tabaci (onion thrips), sunflower leaf disc test; assay type: in vivo; conditions: foliar, 144 h, application rate 200 ppm, mixed ages, 6 days after infestation, read-out: control (mortality)
Procedure: Thrips tabaci (Onion Thrips):
as §3

[7] = system: Tetranychus urticae; assay: Tetranychus urticae (two-spotted spider mite), bean leaf disc test; assay type: in vivo; conditions: foliar, 192 h, application rate 200 ppm, 8 days after infestation, read-out: control (mortality on mixed population, mobile stages)
Procedure: Tetranychus urticae (Two-Spotted Spider Mite):
as §3, with “Bean” for “Sunflower”, “discs” for “discs were placed”, “were” for “and”, “mite” for “thrips”, “on mixed population (mobile stages) 8” for “6”

[8] = system: Euschistus heros; assay: Euschistus heros (neotropical brown stink bug), soybean leaf test; assay type: in vivo; conditions: 120 h, application rate 200 ppm, N2 nymphs, 5 days after infestation, read-out: effect in at least one of the two categories (mortality or growth inhibition)
Procedure: Euschistus heros (Neotropical Brown Stink Bug):
Soybean leaves on agar in 24-well microtiter plates were sprayed with aqueous test solutions prepared from 10′000 ppm DMSO stock solutions. After drying the leaves were infested with N2 nymphs. The samples were assessed for mortality and growth inhibition in comparison to untreated samples 5 days after infestation.

[9] = system: Myzus persicae; assay: Myzus persicae (green peach aphid), sunflower leaf disc spray test; assay type: in vivo; conditions: foliar, 144 h, application rate 200 ppm, mixed ages, 6 DAT, read-out: mortality
[10] = system: Myzus persicae; assay: Myzus persicae (green peach aphid), sucrose solution / Parafilm test; assay type: in vivo; conditions: 120 h, test rate of 12 ppm, sucrose solution, 5 days after infestation, read-out: mortality
Summary of the method: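 Compound mixed into sucrose solution at 12.5 ppm under stretched Parafilm; aphid-infested pea seedlings set on the membrane and plate inverted so insects feed through it. Mortality assessed 5 days after infestation.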

- melting point: 68 to 70 °C
SMILES: Cn1nc(OC(F)(F)C(F)C(F)(F)F)c(C(F)(F)F)c1-n1cc(-c2cc(C(=O)NC3CC3)c(Cl)cc2F)cn1 (centres unmarked)

- melting point: 59 to 61 °C
SMILES: Cn1nc(OC(F)(F)C(F)C(F)(F)F)c(C(F)(F)F)c1-n1cc(-c2cccc(C(=O)NC3(C#N)CC3)c2F)cn1 (centres unmarked)

- melting point: 114 to 116 °C
SMILES: CN1N=C(OC(F)(F)C(F)C(F)(F)F)C(C(F)(F)F)C1n1cc(-c2cc(F)c(Cl)c(C(=O)NC3CC3)c2)cn1 (centres unmarked)

- melting point: 82 to 84 °C
SMILES: CN1N=C(OC(F)(F)C(F)C(F)(F)F)C(C(F)(F)F)C1n1cc(-c2cc(F)c(Cl)c(C(=O)NC3(C#N)CC3)c2)cn1 (centres unmarked)

Second part, the compound before the results:

SMILES: Cn1nc(C(F)(F)C(F)(F)F)c(C(F)(F)F)c1-n1cc(-c2ccc(Cl)c(C(=O)NC3(C#N)CC3)c2)cn1 [B, reference compound]
- mortality at 0.2 ppm [1]: 20%
- mortality at 0.8 ppm [1]: 75%
- mortality at 3 ppm [1]: 100%
- mortality at 12.5 ppm [1]: 100%
- Mortality (%) ([2]; 12.5 ppm): 100%
- mortality at 0.05 ppm ([2]; Thrips tabaci, foliar, 144 h, 0.05 ppm): 0%
- mortality at 0.2 ppm ([2]; Thrips tabaci, foliar, 144 h, 0.2 ppm): 25%
- mortality at 0.781 ppm ([2]; Thrips tabaci, foliar, 144 h, 0.781 ppm): 0%
- mortality at 0.8 ppm ([2]; Thrips tabaci, foliar, 144 h, 0.8 ppm): 90%
- mortality at 3 ppm ([2]; Thrips tabaci, foliar, 144 h, 3 ppm): 100%
- mortality at 3.12 ppm ([2]; Thrips tabaci, foliar, 144 h, 3.12 ppm): 25%
- mortality at 12.5 ppm ([2]; Thrips tabaci, foliar, 144 h, 12.5 ppm): 90%
- mortality at 50 ppm ([2]; Thrips tabaci, foliar, 144 h, 50 ppm): 100%
- mortality at 200 ppm ([2]; Thrips tabaci, foliar, 144 h, 200 ppm): 100%

SMILES: Cn1nc(OC(F)(F)C(F)C(F)(F)F)c(C(F)(F)F)c1-n1cc(-c2cc(Cl)c(Cl)c(C(=O)NC3CC3)c2)cn1 (centres unmarked)
- melting point: 67 to 70 °C

SMILES: Cn1nc(OC(F)(F)C(F)C(F)(F)F)c(C(F)(F)F)c1-n1cc(-c2cc(Cl)c(Cl)c(C(=O)NC3(C#N)CC3)c2)cn1 (centres unmarked)
- melting point: 162 to 165 °C

SMILES: Cn1nc(OC(F)(F)C(F)C(F)(F)F)c(C(F)(F)F)c1-n1cc(-c2ccc(Cl)c(C(=O)NC3CC3)c2)cn1 (centres unmarked) [compound 6]
- percent control (mortality, anti-feedant effect or growth inhibition) at 200 ppm [3]: ≥ 80%
- mortality at 200 ppm [4]: ≥ 80%
- mortality at 200 ppm [5]: ≥ 80%
- mortality at 200 ppm [6]: ≥ 80%
- mortality at 200 ppm [7]: ≥ 80%
- percent effect (mortality or growth inhibition) at 200 ppm [8]: ≥ 80%
- mortality at 200 ppm [9]: ≥ 80%
- mortality at 12 ppm [10]: ≥ 80%
- mortality at 0.2 ppm ([1]; 0.2 ppm, L3 larvae, 5 days after infestation, read-out: Mortality (%)): 0%
- mortality at 0.8 ppm ([1]; 0.8 ppm, L3 larvae, 5 days after infestation, read-out: Mortality (%)): 0%
- mortality at 3 ppm ([1]; 3.0 ppm, L3 larvae, 5 days after infestation, read-out: Mortality (%)): 100%
- mortality at 12.5 ppm ([1]; 12.5 ppm, L3 larvae, 5 days after infestation, read-out: Mortality (%)): 100%
